Results taken from US5451407A, “Reduction or prevention of skin irritation or sensitization during transdermal administration of a irritating or sensitizing drug” (ALZA Corporation, priority 1993, dated 1995).

Legend:
[1] = system: cumulative irritation produced by tetracaine HCl; assay: Cumulative irritation produced by tetracaine HCl during the induction phase, visual score; format: in vivo, hairless guinea pigs; settings: 2% tetracaine, alone or + 1% methyl nicotinate, Table 1 scale (total possible score 8)
Excerpt: The following formulations were made to determine the effect of methyl nicotinate on the cumulative irritation produced by tetracaine HCl during the induction phase:
1) 2 w/v percent tetracaine HCl, 28 w/v percent ethanol, 5 w/v percent HEPPS, 2 w/v percent hydroxypropylcellulose, NaOH q.s. pH 8 and distilled water q.s.,
2) 2 w/v percent tetracaine HCl, 1.0 w/v percent methyl nicotinate, 28 w/v percent ethanol, 5 w/v percent HEPPS, 2 w/v percent hydroxypropylcellulose, NaOH q.s. pH 8 and distilled water q.s., and
(§1) 3) 28 w/v percent ethanol, 5 w/v percent HEPPS, 2 w/v percent hydroxypropylcellulose, NaOH q.s. pH 8 and distilled water q.s.
0.1 ml of each formulation was placed in a Finn® chamber, and applied to the back of a hairless guinea pigs (Charles River). After 6 hours the chambers were removed. This was repeated a total of nine times. The inductions were alternated between two sites, such that one site received five applications and the other site received four applications. Two, 24 and 48 hours after removal of the first, fourth, seventh and ninth applications, the treatment sites were scored to assess irritation.

[2] = system: sensitization and elicitation of sensitization to tetracaine; assay: Sensitization and elicitation of sensitization to tetracaine during the challenge phase, visual score; format: in vivo, hairless guinea pigs; design: scale not given here; settings: challenge 1% tetracaine, alone or + methyl nicotinate (1.0 w/v percent), Table 1 scale
Excerpt: (§2) After the ninth induction exposure, the animals received no treatment for two weeks. The following formulations were used to determine the effect of methyl nicotinate on the sensitization and elicitation of sensitization to tetracaine during the challenge phase:
(§3) 1) 1 w/v percent tetracaine HCl, 28 w/v percent ethanol, 5 w/v percent HEPPS, 2 w/v percent hydroxypropylcellulose, NaOH q.s. pH 8 and distilled water q.s.,
(§4) 2) 1 w/v percent tetracaine HCl, 1.0 w/v percent methyl nicotinate, 28 w/v percent ethanol, 5 w/v percent HEPPS, 2 w/v percent hydroxypropylcellulose, NaOH q.s. pH 8 and distilled water q.s., and
as §1
(§5) 0.1 ml of each formulation was placed in a Finn® chamber. The chamber was then applied to the backs of the animals for 6 hours on previously untreated sites.

[3] = system: sensitization and elicitation of sensitization to tetracaine; assay: Sensitization and elicitation reactions to tetracaine at 72 hours, Minolta Chroma Meter; format: in vivo, hairless guinea pigs; settings: for a" value: challenge 1% tetracaine, alone or + 1% methyl nicotinate, Minolta Chroma Meter
Excerpt: The Minolta® Chroma Meter converts all colors within the range of human perception into a numerical code using the L*, a* and b* notation system. L* expresses brightness on the black-white axis; a* expresses hue on the red-green axis; and b* expresses chroma on the yellow-blue axis so that a specific numerical code enables an exact color description of an object. Minolta® measurements were made by taking the mean a* value of three readings at the treated site.
as §2, §3, §4, §1, §5
The test sites of the animals were then scored using a Minolta® Chroma Meter.

[4] = system: chloroquine-induced irritation; assay: Effect of methyl nicotinate on chloroquine-induced irritation (Finn chamber, Minolta Chroma Meter); format: in vivo, adult human male; settings: 0.05 w/v methyl nicotinate with chloroquine base 1% w/v, 16 hours application, human forearm; scored 3 hours to 7 days; FIG. 5
Excerpt: The following formulations were made to determine the effect of methyl nicotinate on chloroquine-induced irritation:
1) chloroquine base 1% w/v, ethanol 24% w/v, HEPPS 5% w/v, hydroxyethylcellulose gel 2% w/v, NaOH q.s. pH 8.5 and distilled water q.s.,
2) chloroquine base 1% w/v, methyl nicotinate 0.05 w/v, ethanol 24% w/v, HEPPS 5% w/v, hydroxyethylcellulose gel 2% w/v, NaOH q.s. pH 8.5 and distilled water q.s.,
3) methyl nicotinate 0.05 w/v, ethanol 24% w/v, HEPPS 5% w/v, hydroxyethyl cellulose gel 2% w/v, NaOH q.s. pH 8.5 and distilled water q.s., and
4) ethanol 24% w/v, HEPPS 5% w/v, hydroxyethylcellulose gel 2% w/v, NaOH q.s. pH 8.5 and distilled water q.s.
0.020 ml of each formulation was placed in a Finn® chamber. The chambers were inverted and applied to four skin sites on the forearm of an adult human. […] At 3 hours, 8 hours, 1 day, 2 days, 3 days, 4 days, 6 days and 7 days thereafter, the sites were observed and the intensity of the irritant reaction was scored with a Minolta® Chroma Meter.
The Minolta® Chroma Meter converts all colors within the range of human perception into a numerical code using the L*, a* and b* notation system. […] Minolta® measurements were made by taking the mean a* value of three readings at the treated site. That result was then subtracted from the mean a* value of three readings at adjacent sites treated with a placebo formulation.

[5] = system: elicitation of sensitization to propranolol; assay: Effect of methyl nicotinate on the elicitation of sensitization to propranolol (Minolta Chroma Meter); format: in vivo, adult male known to be sensitized to propranolol; settings: 0.05 w/v percent methyl nicotinate with 0.1 w/v percent propranolol base, two hours application, upper arm; recorded two and three days later; FIG. 6
Excerpt: The following formulations were made to determine the effect of methyl nicotinate on the elicitation of sensitization to propranolol:
1) 0.1 w/v percent propranolol base, 32 w/v percent ethanol, 5 w/v percent HEPPS, 2 w/v percent hydroxyethylcellulose, NaOH q.s. pH 8 and distilled water q.s., and
2) 0.1 w/v percent propranolol base, 0.05 w/v percent methyl nicotinate, 32 w/v percent ethanol, 5 w/v percent HEPPS, 2 w/v percent hydroxyethylcellulose, NaOH q.s. pH 8 and distilled water q.s.
0.020 ml of each formulation was placed in a Finn® chamber. The chambers were applied to four sites on the upper arm of an adult, who was known to be sensitized to propranolol. After two hours the chambers were removed and the sites washed. The intensity of the reaction was recorded two and three days later using the mean a* measurement recorded by a Minolta® Chroma Meter.

With `CCCCNc1ccc(C(=O)OCCN(C)C)cc1` [tetracaine] the visual irritation score ([1]; application four, 2 h after removal) was 2.7, the visual irritation score ([1]; application four, 24 h after removal) was 2.6 and the visual irritation score ([1]; application four, 48 h after removal) was 1.8. The visual irritation score ([1]; application nine, 2 h after removal) was 6.7, the visual irritation score ([1]; application nine, 24 h after removal) was 6.6 and the visual irritation score ([1]; application nine, 48 h after removal) was 6.0. For the same compound, the visual irritation score ([1]; application one, 2 h after removal) was 1.9, the visual irritation score ([1]; application one, 24 h after removal) was 1.2 and the visual irritation score ([1]; application one, 48 h after removal) was 1.1. For the same compound, the visual irritation score ([1]; application seven, 2 h after removal) was 5.8, the visual irritation score ([1]; application seven, 24 h after removal) was 5.9 and the visual irritation score ([1]; application seven, 48 h after removal) was 5.6. For the same compound, the “visual score of challenge site” value ([2]; induction 2% tetracaine + 1% methyl nicotinate, 2 h after removal) was 2.8, the “visual score of challenge site” value ([2]; induction 2% tetracaine + 1% methyl nicotinate, 24 h after removal) was 2.3 and the “visual score of challenge site” value ([2]; induction 2% tetracaine + 1% methyl nicotinate, 48 h after removal) was 2.1. For the same compound, the “visual score of challenge site” value ([2]; induction 2% tetracaine + 1% methyl nicotinate, 72 h after removal) was 2.0, the “visual score of challenge site” value ([2]; induction 2% tetracaine, 2 h after removal) was 3.4 and the “visual score of challenge site” value ([2]; induction 2% tetracaine, 24 h after removal) was 2.5. For the same compound, the “visual score of challenge site” value ([2]; induction 2% tetracaine, 48 h after removal) was 2.2, the “visual score of challenge site” value ([2]; induction 2% tetracaine, 72 h after removal) was 2.1 and the “visual score of challenge site” value ([2]; induction Control, 2 h after removal) was 1.6. For the same compound, the “visual score of challenge site” value ([2]; induction Control, 24 h after removal) was 1.0, the “visual score of challenge site” value ([2]; induction Control, 48 h after removal) was 0.8 and the “visual score of challenge site” value ([2]; induction Control, 72 h after removal) was 0.6. For the same compound, the “a" value” ([3]; induction formulation 2% tetracaine + 1% methyl nicotinate) was 10.6, the “a" value” ([3]; induction formulation 2% tetracaine) was 12.8 and the “a" value” ([3]; induction formulation Control) was 8.8.

With `COC(=O)c1cccnc1` [methyl nicotinate] the “irritant reaction (mean a* value)” value [4] was “reduced the irritant reaction”, the “elicitation of the sensitization reaction (mean a* value)” value [5] was “inhibited the elicitation of the sensitization reaction” and the “elicitation reaction to tetracaine (Minolta scores)” value ([3]; FIG. 9) was “decreased”. For the same compound, the “sensitization reaction to tetracaine (Minolta scores)” value ([3]; FIG. 9) was “decreased”.
